# Measurements taken from a melting point compilation (Tetko et al.; mined from patent text by program, amines drawn as free bases though some values may be those of a salt).
row,SMILES,melting point [°C]
1,CCOC(=O)c1cc(NCc2ccccc2)c(Nc2ccc3ccccc3c2)c(S(N)(=O)=O)c1,199 to 201
2,Nc1cccc(-c2ccnc3c(C(=O)c4cccs4)cnn23)c1,183 to 184
3,CCCCC1=NC2(CCCC2)C(=O)N1Cc1ccc(-c2ccccc2S(=O)(=O)Nc2onc(C)c2C)c(CCC(C)C)c1,50 to 53
4,Brc1cccc(-c2cn([C@H]3CN4CCC3CC4)nn2)c1,188
5,Fc1cc(F)cc(Oc2ccc(OCc3ccc(Cl)cc3)c(Cl)c2)c1,95.3
6,CCC(=O)c1ccc2c(ccn2S(=O)(=O)c2ccc(C)cc2)c1,162 to 164
7,COc1cc(OCCN2CCN(C)CC2)ccc1/C=C/c1cc(/C=C/c2ccc3cc[nH]c3c2)n[nH]1,134 to 142
8,Cc1cnc(-c2ccc(C(F)(F)F)cc2)nc1Cl,110 to 112
9,c1ccc(NCc2nccc(-c3ccc(-c4ccc(N(c5ccccc5)c5ccccc5)cc4)cc3)n2)cc1,200 to 201
10,CC(=O)NC(=Cc1ccc(F)cc1)C(=O)OCCC(F)=C(F)F,116
11,NS(=O)(=O)c1ccc(-c2nc(-c3ncn4c(C(F)(F)F)cc(-c5ccc(C(F)(F)F)cc5)nc34)no2)cc1,303
12,CCCC(=O)c1cc2c(=O)cc(C(=O)OC)[nH]c2c(C)c1C,157 to 159
13,Clc1c(Cl)c(Cl)c2[nH]c(NC3=NCCN3)nc2c1Cl,310
14,COC(=O)CCc1cc([N+](=O)[O-])c(O)c(C(C)(C)C)c1,41 to 42
15,CC(C)(C)OC(=O)Nc1ccc2ccc(S(C)(=O)=O)cc2c1,179 to 180
16,CNC(=NS(C)(=O)=O)NCCCCCc1nc(N)nc(NC(N)=NCC(F)(F)F)n1,131 to 133
17,CC(C)(Nc1cccc(C(=N)N)c1)C(=O)Nc1ccc(-c2ccccc2S(N)(=O)=O)cc1,197
18,CCCCOc1c(CNC(=O)OC(C)(C)C)n(CC2CC2)c(=O)c2ccc(OCc3ccccc3)cc12,106 to 107
19,COc1ccc(Cn2cc([N+](=O)[O-])c(C(N)=O)n2)cc1,192 to 193
20,O=S(=O)(Nc1ccc(Cl)cc1-c1cc(-c2ccc(F)cc2F)on1)C(F)(F)F,117 to 119
21,Cc1cccc2c1Sc1nccnc1N2,165 to 166
22,Nc1ncc(Br)nc1-c1ccccc1Cl,138 to 140
23,CS(=O)(=O)c1ccc(-n2nc(C(F)(F)F)cc2-c2nc3ccc(F)cc3s2)cc1,194 to 196

row,SMILES,melting point [°C]
1,Clc1ccc2nc3n(c2c1)CCC3,136
2,CO/C(=C\c1ccc2oc(Cc3nc(-c4ccccc4)oc3C)cc2c1)C(N)=O,160 to 164
3,CCOC(=O)C(C#N)=Cc1ccc(NC(C)=O)cc1,187
4,c1cc(Nc2ccc(-n3cccc3)cn2)cc(-n2ccnc2)c1,152 to 156
5,CCCCc1nn(-c2cc([N+](=O)[O-])ccc2Cl)c(=O)n1Cc1ccc(-c2ccccc2S(=O)(=O)NC(C)(C)C)cc1,> 75
6,COc1ccc(C(NC(C)=O)C(=O)c2ccc(Cl)cc2)cc1 (stereo not given),140
7,C/C(=N\OC(=O)c1ccc(CNC(=O)OC(C)(C)C)cc1)[C@H]1CC[C@H]2[C@@H]3CCC4=CC(=O)CC[C@]4(C)[C@H]3CC[C@]12C,166 to 168
8,COC(=O)c1c(C)c([N+](=O)[O-])cc2nc(OC)c(OC)nc12,174 to 176
9,OC1(c2ccncc2)Cc2ccccc2C2=NCCN21 (stereo not given),162 to 164
10,CCOC(=O)c1ccc(C(=O)CN2CCN(c3ccncc3)CC2)cc1,147 to 149
11,O[C@@H]1CCC[C@H]1Nc1ccc(Cl)c(Cl)c1 (relative stereo),167 to 168
12,CCOC(=O)C1(C(=O)OCC)OC(=O)c2ncccc2C1(O)c1ccccc1 (stereo not given),146 to 147
13,Cc1ccc(S(=O)(=O)Cc2c(C#N)nn(-c3ccccc3)c2O)cc1,214
14,CON(C)C(=O)Nc1ccc(Oc2ccc3ccccc3c2)c(C(F)(F)F)c1,129 to 130
15,N#Cc1ccc(C2CC(=O)N(CC3CC3)Cc3cncn32)cc1 (stereo not given),178 to 180
16,CC1(C)CC(=O)C(Br)(Cc2ccc(Cl)cc2)C(Br)C1 (stereo not given),82 to 84
17,CNC(=O)c1cc(-n2cnn(Cc3ccc(F)cc3)c2=O)n[nH]1,268 to 269
18,CN1CCC(c2c[nH]c3ccc(C(=O)c4ccccc4)cc23)CC1,101
19,CC(=O)c1ccc2c(c1)C(n1ccccc1=O)C(O)C(C)(C)O2 (stereo not given),260
20,COC(=O)c1[nH]c(SCc2ccccn2)nc1CCNC(=O)[C@H](Cc1ccccc1)NC(=O)N(Cc1ccccc1)NC(=O)C(C)(C)C,171 to 172
21,CN1C(=O)CC2(CNC(=O)C2)C1=O (stereo not given),201 to 204
22,CCCCCCCCCCCCCCCCCC(=O)N1CCCCc2nc(-c3ccccc3)sc21,38 to 40
23,CC(C)(C)OC(=O)[C@H]1C[C@H](C(=O)Nc2ccccc2)[C@@H](c2ccccc2F)N1C(=O)CNC(=O)Nc1cccc(C(=O)O)c1 (racemic),170

# Other lines, results leading:
row,melting point [°C],SMILES
1,151 to 153,CCCCn1c(=O)c2cn(S(=O)(=O)c3ccc(C(F)(F)F)cc3)nc2n(CCCC)c1=O
2,213 to 215,N#Cc1ccc(/C=C/C2=CCN(Cc3c[nH]c4ncccc34)CC2)cc1
3,149 to 151,Nc1nnc(C(F)(F)Oc2ccccc2)s1
4,365 to 366,O=C(O)c1ccc(CN2C(=O)c3ccc(C(=O)O)cc3C2=O)cc1
5,118 to 120,CCOC(=O)c1cnc2sc(C)cc2c1O
6,134 to 136,Cc1nc2ccc(OCCCN3CCC(OC(c4ccccc4)c4ccccc4)CC3)nn2n1
7,248 to 254,O=c1c2cc3ccccc3cc2nc(CSc2ncnc3[nH]cnc23)n1-c1ccccc1Cl
8,90,O=C(O)CC(CNC(=O)C1Cc2ccccc2N1S(=O)(=O)c1ccc(-c2cccc(C(F)(F)F)c2)cc1)c1ccccc1 (stereo not given)
9,140 to 141,CS(=O)(=O)CC(=O)Nc1ccccc1
10,257 to 260,C[C@@H]1CN(c2c(F)cc3c(=O)c(C(=O)O)cn(C4CC4)c3c2F)C[C@H]1N (relative stereo)
11,77 to 79,COc1ccc(C=Cc2ccc(C)c(Cl)c2)c(Cl)c1
12,157 to 159,OCC(O)CNc1nnc(-c2ccc(F)c(F)c2Nc2ccc(I)cc2F)o1 (stereo not given)
13,103 to 105,CSc1ncc2cc(CBr)c(=O)n(C3CCCC3)c2n1
14,121 to 123,Cc1cc([N+](=O)[O-])c(C)cc1O
15,55 to 56,Cc1cccc(C)c1CNc1cc(C(=O)N(C)C)cc2c1nc(C)n2COCc1ccccc1
16,112,Cn1cncc1C1SCCCS1
17,> 300,CC(=O)OC1c2ccccc2-c2[nH]c(=O)c(=O)[nH]c21 (stereo not given)
18,170,Cc1cc2cc(CN3CCCCCC3)cnc2cc1NC(=O)c1ccc(-c2ccc(F)cc2)cc1F
19,109 to 110,CC(C)Nc1ncnc2c1ncn2Cc1c(Cl)cccc1Cl
20,181,O=P(O)(O)C(O)(CCCc1ccc(Cl)cc1)P(=O)(O)O
21,133 to 135,COC(C)c1nsc2ccc(-n3c(=O)cc(C(F)(F)F)n(C)c3=O)cc12 (stereo not given)
22,63 to 65,FC(F)(F)c1c[nH]cc1-c1cccc(Cl)c1Cl
23,170,COCc1ccc(C2(O)CCN(CC(O)c3ccc(O)cc3)CC2)cc1 (stereo not given)
24,202 to 204,COC(=O)c1c(-c2ccccc2)[nH]c(-c2ccncc2)c1C
25,93 to 94,FC(F)(F)CNC1=NN(c2ccc(Cl)c(Cl)c2)CC1

row,melting point [°C],SMILES
1,167 to 168,O=C(O)CCC(=O)c1ccc(N2CCOCC2)cc1
2,146 to 148,CCC(=O)Nc1ccc(Br)c(-n2nc(CC)n(Cc3ccc(-c4ccccc4S(=O)(=O)NC(=O)OC(C)(C)C)cc3F)c2=O)c1
3,110 to 111,CC(C)C(C)(C#N)N1C(=O)c2cccc(O)c2C1=O (stereo not given)
4,87 to 88,Cc1csc(CN(C)C(=O)C23CC4CC(CC(C4)C2)C3)c1
5,182 to 183,COc1cc(OC)c(-c2cc3ccccc3n2C(=O)OC(C)(C)C)cc1/C=C/C(=O)c1ccc(C(=O)O)cc1
6,89 to 92,Cc1cccc(C)c1NCC(N)=O
7,61 to 63,CC(C(=O)NCC(COC(=O)C(C)(C)C)Cc1ccc(C(C)(C)C)cc1)c1ccc(NS(C)(=O)=O)c(Cl)c1 (stereo not given)
8,81 to 82,COc1ccc(-c2cc3c(n2CCN(C)C)CCCC3)cc1
9,100,CCOC(=O)c1ccc(OCC2(O)CCN(Cc3ccccc3)CC2)cc1
10,115 to 117,CS(=O)(=O)OC1=C(C(=O)O)N2C(=O)[C@@H](NC(=O)Cc3ccccc3)[C@H]2CN1 (racemic)
11,172 to 174,Clc1nn2c(-c3ccccc3)nnc2c2ccccc12
12,182 to 184,O=C1c2ccc(O)cc2OCN1CCO
13,153 to 155,C[C@@H](CS(=O)C(F)(F)C(F)F)[C@](O)(Cn1cncn1)c1ccc(Cl)cc1Cl (stereo not given in full)
14,162 to 164,"CC(=O)NCC1CC(c2ccc(-n3ccc(CO)c3)c(F)c2)=NO1 (single isomer, unassigned; (-))"
15,34,CCOC(=O)CC(=O)c1ccc(Br)cc1Cl
16,148 to 151,CNC(=O)c1cccc(NC(=O)Cc2ccc([N+](=O)[O-])cc2)c1
17,77 to 97,Cc1cccc(-c2nc(C(C)C)[nH]c2-c2ccc(F)c(-c3cnn(C)c3)c2)n1
18,89 to 90,O=C1C2C3C=CC(C3)C2C(=O)N1OS(=O)(=O)C(F)(F)F (stereo not given)
19,> 300,Nc1ccc2[nH]c(C(=O)N3CC(CCl)c4c3cc(N)c3ccccc43)cc2c1 (stereo not given)
20,273,CNc1c(F)cc2c(=O)c(C(=O)O)cn(-c3cc(N)c(F)cc3Cl)c2c1Cl
21,93 to 95,COC(=O)CC[C@H](NC(=O)c1cn(C(c2ccccc2)(c2ccccc2)c2ccccc2)c(C#Cc2cnc3nc(NC(=O)C(C)(C)C)nc(O)c3c2)n1)C(=O)OC
22,84 to 101,COc1cc2c(cc1Nc1ncc(Cl)c(Nc3ccc(N4CCOCC4)cc3OC)n1)CCN(C(=O)CN(C)C)CC2
23,140 to 143,COc1cncnc1N1CCN(CCCc2c[nH]c3ccc(Nc4c(OC(C)C)c(=O)c4=O)cc23)CC1
24,180 to 182,CSC(=NC#N)NCCSCc1ccc(Nc2ccccc2)nc1
